In ChEMBL document CHEMBL4800729 (2021):

Tests used:
[1] = biological target: Mitogen-activated protein kinase kinase kinase 21 (Homo sapiens) (UniProt Q5TCX8); test: MLK4(h) Millipore kinase panel; settings: Compound concentration 1.0 uM
[2] = biological target: Serine/threonine-protein kinase 17A (Homo sapiens) (UniProt Q9UEE5); test: DRAK1(h) Millipore kinase panel; settings: Compound concentration 1.0 uM
[3] = biological target: Serine/threonine-protein kinase DCLK1 (Homo sapiens) (UniProt O15075); test: DCAMKL1(h) Millipore kinase panel; settings: Compound concentration 1.0 uM
[4] = biological target: Prostaglandin G/H synthase 1 (Homo sapiens) (UniProt P23219); test: Cyclooxygenase COX-1 Eurofins-Panlabs enzyme assay; parameters: substrate with concentration; settings: Compound concentration 10.0 uM
[5] = biological target: GABA-A receptor; anion channel (Rattus norvegicus) (UniProt O09028+P15431+P18506+P18508+P19969+P20236+P23574+P23576+P28471+P28473+P30191+P62813+P63079+P63138+Q91ZM7+Q9ES14); settings: Compound concentration 10.0 uM
[6] = biological target: Serine/threonine-protein kinase mTOR (Homo sapiens) (UniProt P42345); test: mTOR(h) Millipore kinase panel; settings: Compound concentration 1.0 uM
[7] = biological target: cAMP-dependent protein kinase catalytic subunit PRKX (Homo sapiens) (UniProt P51817); test: PrKX(h) Millipore kinase panel; settings: Compound concentration 1.0 uM
[8] = biological target: 5-hydroxytryptamine receptor 1B (Homo sapiens, UniProt P28222); settings: Compound concentration 10.0 uM
[9] = biological target: Testis-specific serine/threonine-protein kinase 1 (Homo sapiens) (UniProt Q9BXA7); test: TSSK1(h) Millipore kinase panel; settings: Compound concentration 1.0 uM
[10] = biological target: 5-hydroxytryptamine receptor 2B (Homo sapiens, UniProt P41595); settings: Compound concentration 10.0 uM
[11] = biological target: Macrophage-stimulating protein receptor (Homo sapiens) (UniProt Q04912); test: Ron(h) Millipore kinase panel; settings: Compound concentration 1.0 uM
[12] = biological target: eIF-2-alpha kinase GCN2 (Homo sapiens) (UniProt Q9P2K8); test: GCN2(h) Millipore kinase panel; settings: Compound concentration 1.0 uM
[13] = biological target: Tyrosine-protein kinase receptor UFO (Homo sapiens) (UniProt P30530); test: Axl(h) Millipore kinase panel; settings: Compound concentration 1.0 uM
[14] = biological target: Interleukin-1 receptor-associated kinase 4 (Homo sapiens) (UniProt Q9NWZ3); test: IRAK4(h) Millipore kinase panel; settings: Compound concentration 1.0 uM
[15] = biological target: Motilin receptor (Homo sapiens) (UniProt O43193); settings: Compound concentration 10.0 uM
[16] = biological target: Ephrin type-A receptor 7 (Homo sapiens) (UniProt Q15375); test: EphA7(h) Millipore kinase panel; settings: Compound concentration 1.0 uM
[17] = biological target: Interleukin-1 receptor-associated kinase 1 (Homo sapiens) (UniProt P51617); test: IRAK1(h) Millipore kinase panel; settings: Compound concentration 1.0 uM
[18] = biological target: Serine/threonine-protein kinase Nek7 (Homo sapiens) (UniProt Q8TDX7); test: NEK7(h) Millipore kinase panel; settings: Compound concentration 1.0 uM
[19] = biological target: Ephrin type-A receptor 5 (Homo sapiens) (UniProt P54756); test: EphA5(h) Millipore kinase panel; settings: Compound concentration 1.0 uM
[20] = biological target: cAMP-dependent protein kinase catalytic subunit alpha (Homo sapiens) (UniProt P17612); test: PKA(h) Millipore kinase panel; settings: Compound concentration 1.0 uM
[21] = biological target: Serine/threonine-protein kinase TAO2 (Homo sapiens) (UniProt Q9UL54); test: TAO2(h) Millipore kinase panel; settings: Compound concentration 1.0 uM
[22] = biological target: Cyclin-dependent kinase 1/cyclin B (Homo sapiens) (UniProt P06493+P14635+Q8WWL7+O95067); test: CDK1/cyclinB(h) Millipore kinase panel; type: protein-complex assay; settings: Compound concentration 1.0 uM
[23] = biological target: Casein kinase II subunit alpha (Homo sapiens) (UniProt P68400); test: CK2(h) Millipore kinase panel; settings: Compound concentration 1.0 uM
[24] = biological target: Mitogen-activated protein kinase kinase kinase 11 (Homo sapiens) (UniProt Q16584); test: MLK3(h) Millipore kinase panel; settings: Compound concentration 1.0 uM
[25] = biological target: Calcium/calmodulin-dependent protein kinase type 1G (Homo sapiens) (UniProt Q96NX5); test: CaMKIgamma(h) Millipore kinase panel; settings: Compound concentration 1.0 uM
[26] = biological target: Tyrosine-protein kinase Fer (Homo sapiens) (UniProt P16591); test: Fer(h) Millipore kinase panel; settings: Compound concentration 1.0 uM
Homo sapiens = species on record: Homo sapiens; settings: Compound concentration 10.0 uM
[27] = biological target: Progesterone receptor (Homo sapiens) (UniProt P06401); settings: Compound concentration 10.0 uM
[28] = biological target: Histamine H3 receptor (Homo sapiens) (UniProt Q9Y5N1); settings: Compound concentration 10.0 uM
[29] = biological target: Casein kinase I isoform alpha (Homo sapiens) (UniProt P48729); test: CK1alpha(h) Millipore kinase panel; settings: Compound concentration 1.0 uM
[30] = biological target: 5-hydroxytryptamine receptor 2A (Homo sapiens) (UniProt P28223); settings: Compound concentration 10.0 uM
[31] = biological target: Serine/threonine-protein kinase ULK3 (Homo sapiens) (UniProt Q6PHR2); test: ULK3(h) Millipore kinase panel; settings: Compound concentration 1.0 uM
[32] = biological target: Rhodopsin kinase GRK7 (Homo sapiens) (UniProt Q8WTQ7); test: GRK7(h) Millipore kinase panel; settings: Compound concentration 1.0 uM
[33] = biological target: Myotonin-protein kinase (Homo sapiens) (UniProt Q09013); test: DMPK(h) Millipore kinase panel; settings: Compound concentration 1.0 uM
[34] = biological target: Beta-3 adrenergic receptor (Homo sapiens) (UniProt P13945); settings: Compound concentration 10.0 uM
D(1A) dopamine receptor = D(1A) dopamine receptor (Homo sapiens, UniProt P21728); settings: Compound concentration 10.0 uM
[35] = biological target: Serine/threonine-protein kinase pim-2 (Homo sapiens) (UniProt Q9P1W9); test: Pim-2(h) Millipore kinase panel; settings: Compound concentration 1.0 uM
[36] = biological target: Casein kinase II subunit alpha (Homo sapiens) (UniProt P68400); test: CK2alpha1(h) Millipore kinase panel; settings: Compound concentration 1.0 uM
[37] = biological target: D(1B) dopamine receptor (Homo sapiens) (UniProt P21918); settings: Compound concentration 10.0 uM
[38] = biological target: Cyclin-dependent kinase 2/cyclin A (Homo sapiens) (UniProt P24941+P20248+P78396); test: CDK2/cyclinA(h) Millipore kinase panel; type: protein-complex assay; settings: Compound concentration 1.0 uM
[39] = biological target: Protein kinase C alpha type (Homo sapiens) (UniProt P17252); test: PKCalpha(h) Millipore kinase panel; settings: Compound concentration 1.0 uM
[40] = biological target: Serine/threonine-protein kinase PLK1 (Homo sapiens) (UniProt P53350); test: Plk1(h) Millipore kinase panel; settings: Compound concentration 1.0 uM
[41] = biological target: Serine/threonine-protein kinase B-raf (Homo sapiens) (UniProt P15056); test: BRaf(h) Millipore kinase panel; settings: Compound concentration 1.0 uM

Chain of Casein kinase II subunit alpha (Homo sapiens) (P68400 whole entry, looked up): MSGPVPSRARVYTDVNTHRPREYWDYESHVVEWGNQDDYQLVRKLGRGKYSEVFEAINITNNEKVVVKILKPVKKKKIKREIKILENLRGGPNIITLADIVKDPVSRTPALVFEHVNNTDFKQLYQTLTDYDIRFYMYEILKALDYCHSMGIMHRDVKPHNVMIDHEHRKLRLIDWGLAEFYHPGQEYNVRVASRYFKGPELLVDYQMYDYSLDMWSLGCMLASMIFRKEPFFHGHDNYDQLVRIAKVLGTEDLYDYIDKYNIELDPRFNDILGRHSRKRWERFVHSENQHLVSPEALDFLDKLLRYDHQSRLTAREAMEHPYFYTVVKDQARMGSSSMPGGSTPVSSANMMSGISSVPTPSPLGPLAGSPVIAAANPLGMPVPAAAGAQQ
Chain of Serine/threonine-protein kinase TAO2 (Homo sapiens) (Q9UL54 whole entry): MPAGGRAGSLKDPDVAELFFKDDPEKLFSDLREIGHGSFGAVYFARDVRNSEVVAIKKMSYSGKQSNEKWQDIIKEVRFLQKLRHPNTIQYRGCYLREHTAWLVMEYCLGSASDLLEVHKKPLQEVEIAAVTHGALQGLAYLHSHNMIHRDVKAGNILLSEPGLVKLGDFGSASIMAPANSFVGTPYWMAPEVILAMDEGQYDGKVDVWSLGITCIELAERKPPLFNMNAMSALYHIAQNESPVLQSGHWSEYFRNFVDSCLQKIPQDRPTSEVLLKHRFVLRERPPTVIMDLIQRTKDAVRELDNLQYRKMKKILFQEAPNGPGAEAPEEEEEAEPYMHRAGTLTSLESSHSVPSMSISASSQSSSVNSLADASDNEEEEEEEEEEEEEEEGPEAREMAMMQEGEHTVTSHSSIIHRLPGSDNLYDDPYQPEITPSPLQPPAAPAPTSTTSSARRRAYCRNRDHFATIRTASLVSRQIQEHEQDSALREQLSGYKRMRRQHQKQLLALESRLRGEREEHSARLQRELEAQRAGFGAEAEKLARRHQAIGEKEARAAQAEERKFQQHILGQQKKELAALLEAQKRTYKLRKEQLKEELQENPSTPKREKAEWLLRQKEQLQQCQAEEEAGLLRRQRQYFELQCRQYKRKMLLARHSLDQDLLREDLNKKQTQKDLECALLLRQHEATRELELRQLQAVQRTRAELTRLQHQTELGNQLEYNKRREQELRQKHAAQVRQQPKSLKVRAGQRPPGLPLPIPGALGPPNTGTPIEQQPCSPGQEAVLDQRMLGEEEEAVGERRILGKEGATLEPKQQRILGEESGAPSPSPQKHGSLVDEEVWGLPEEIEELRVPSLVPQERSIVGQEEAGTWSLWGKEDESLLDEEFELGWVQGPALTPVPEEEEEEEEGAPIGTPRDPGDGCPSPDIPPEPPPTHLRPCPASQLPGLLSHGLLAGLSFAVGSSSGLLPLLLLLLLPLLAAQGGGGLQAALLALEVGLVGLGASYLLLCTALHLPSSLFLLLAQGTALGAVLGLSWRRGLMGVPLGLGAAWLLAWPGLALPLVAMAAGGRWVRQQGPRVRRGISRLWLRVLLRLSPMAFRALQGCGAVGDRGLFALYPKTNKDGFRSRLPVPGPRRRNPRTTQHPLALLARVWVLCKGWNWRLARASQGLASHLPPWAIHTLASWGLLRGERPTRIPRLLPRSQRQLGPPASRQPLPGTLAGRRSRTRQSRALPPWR
Chain of Serine/threonine-protein kinase PLK1 (Homo sapiens) (P53350 whole entry): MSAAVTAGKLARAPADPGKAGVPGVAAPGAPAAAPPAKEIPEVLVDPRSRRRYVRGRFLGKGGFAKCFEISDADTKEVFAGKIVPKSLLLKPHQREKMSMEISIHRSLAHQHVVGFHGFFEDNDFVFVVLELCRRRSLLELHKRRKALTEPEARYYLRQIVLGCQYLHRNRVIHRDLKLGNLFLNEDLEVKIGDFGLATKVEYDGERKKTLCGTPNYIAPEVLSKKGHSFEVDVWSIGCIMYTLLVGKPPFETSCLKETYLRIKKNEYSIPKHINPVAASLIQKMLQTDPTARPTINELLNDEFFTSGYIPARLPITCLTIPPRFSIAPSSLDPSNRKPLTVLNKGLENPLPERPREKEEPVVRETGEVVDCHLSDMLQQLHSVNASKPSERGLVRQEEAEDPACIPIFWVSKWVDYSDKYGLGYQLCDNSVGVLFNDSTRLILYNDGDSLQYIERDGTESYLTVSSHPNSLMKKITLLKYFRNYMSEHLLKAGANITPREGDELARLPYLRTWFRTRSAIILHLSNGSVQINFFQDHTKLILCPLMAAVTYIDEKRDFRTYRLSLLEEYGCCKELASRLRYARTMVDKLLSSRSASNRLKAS
Chain of Interleukin-1 receptor-associated kinase 4 (Homo sapiens) (Q9NWZ3 whole entry): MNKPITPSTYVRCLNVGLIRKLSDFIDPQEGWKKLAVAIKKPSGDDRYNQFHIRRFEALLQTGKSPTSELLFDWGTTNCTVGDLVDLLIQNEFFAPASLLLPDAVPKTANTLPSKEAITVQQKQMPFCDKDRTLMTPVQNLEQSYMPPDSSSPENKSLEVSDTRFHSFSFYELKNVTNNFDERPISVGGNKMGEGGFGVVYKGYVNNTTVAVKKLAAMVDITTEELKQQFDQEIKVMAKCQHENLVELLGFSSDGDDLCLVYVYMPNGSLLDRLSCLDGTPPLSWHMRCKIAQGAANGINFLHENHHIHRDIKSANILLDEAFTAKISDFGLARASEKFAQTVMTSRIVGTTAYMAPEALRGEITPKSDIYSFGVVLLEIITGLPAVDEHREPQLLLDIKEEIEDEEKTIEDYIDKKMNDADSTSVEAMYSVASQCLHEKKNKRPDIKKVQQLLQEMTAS
Chain of Serine/threonine-protein kinase pim-2 (Homo sapiens) (Q9P1W9 whole entry, looked up): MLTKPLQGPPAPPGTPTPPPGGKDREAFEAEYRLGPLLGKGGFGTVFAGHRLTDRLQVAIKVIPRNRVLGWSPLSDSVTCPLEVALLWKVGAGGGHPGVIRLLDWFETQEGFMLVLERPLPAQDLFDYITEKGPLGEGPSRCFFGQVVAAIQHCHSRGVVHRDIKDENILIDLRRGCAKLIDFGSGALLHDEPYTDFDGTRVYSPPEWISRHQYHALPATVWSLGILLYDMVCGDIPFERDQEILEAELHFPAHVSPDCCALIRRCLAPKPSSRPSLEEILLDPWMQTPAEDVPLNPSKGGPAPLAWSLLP
Chain of Ephrin type-A receptor 5 (Homo sapiens) (P54756 whole entry): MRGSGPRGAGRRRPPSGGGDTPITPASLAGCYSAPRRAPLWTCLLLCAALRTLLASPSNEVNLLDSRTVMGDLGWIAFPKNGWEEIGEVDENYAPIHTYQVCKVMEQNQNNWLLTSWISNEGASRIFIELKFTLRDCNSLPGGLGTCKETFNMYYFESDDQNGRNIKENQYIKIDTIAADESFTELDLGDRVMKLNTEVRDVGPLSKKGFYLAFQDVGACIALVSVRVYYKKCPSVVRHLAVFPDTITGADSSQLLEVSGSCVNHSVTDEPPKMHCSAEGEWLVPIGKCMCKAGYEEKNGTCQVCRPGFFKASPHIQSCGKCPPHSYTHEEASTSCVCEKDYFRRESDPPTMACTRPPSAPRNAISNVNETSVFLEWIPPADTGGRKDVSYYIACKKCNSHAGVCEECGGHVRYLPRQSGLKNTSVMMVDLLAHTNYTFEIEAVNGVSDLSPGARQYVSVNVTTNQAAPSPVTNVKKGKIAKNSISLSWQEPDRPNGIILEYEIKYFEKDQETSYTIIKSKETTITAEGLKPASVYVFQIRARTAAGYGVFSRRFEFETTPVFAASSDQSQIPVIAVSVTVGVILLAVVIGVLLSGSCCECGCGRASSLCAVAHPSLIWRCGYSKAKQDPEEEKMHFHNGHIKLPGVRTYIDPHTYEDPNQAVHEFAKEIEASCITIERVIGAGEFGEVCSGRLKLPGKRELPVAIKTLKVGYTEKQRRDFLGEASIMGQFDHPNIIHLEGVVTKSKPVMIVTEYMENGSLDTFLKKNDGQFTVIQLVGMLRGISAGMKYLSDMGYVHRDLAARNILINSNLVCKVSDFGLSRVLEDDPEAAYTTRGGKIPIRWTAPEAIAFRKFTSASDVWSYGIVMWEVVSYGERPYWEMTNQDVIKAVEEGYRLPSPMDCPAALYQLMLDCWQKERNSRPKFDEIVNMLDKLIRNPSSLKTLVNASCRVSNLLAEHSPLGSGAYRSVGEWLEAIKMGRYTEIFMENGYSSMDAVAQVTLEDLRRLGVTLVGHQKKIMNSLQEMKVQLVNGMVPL
Chain of Interleukin-1 receptor-associated kinase 1 (Homo sapiens) (P51617 whole entry, looked up): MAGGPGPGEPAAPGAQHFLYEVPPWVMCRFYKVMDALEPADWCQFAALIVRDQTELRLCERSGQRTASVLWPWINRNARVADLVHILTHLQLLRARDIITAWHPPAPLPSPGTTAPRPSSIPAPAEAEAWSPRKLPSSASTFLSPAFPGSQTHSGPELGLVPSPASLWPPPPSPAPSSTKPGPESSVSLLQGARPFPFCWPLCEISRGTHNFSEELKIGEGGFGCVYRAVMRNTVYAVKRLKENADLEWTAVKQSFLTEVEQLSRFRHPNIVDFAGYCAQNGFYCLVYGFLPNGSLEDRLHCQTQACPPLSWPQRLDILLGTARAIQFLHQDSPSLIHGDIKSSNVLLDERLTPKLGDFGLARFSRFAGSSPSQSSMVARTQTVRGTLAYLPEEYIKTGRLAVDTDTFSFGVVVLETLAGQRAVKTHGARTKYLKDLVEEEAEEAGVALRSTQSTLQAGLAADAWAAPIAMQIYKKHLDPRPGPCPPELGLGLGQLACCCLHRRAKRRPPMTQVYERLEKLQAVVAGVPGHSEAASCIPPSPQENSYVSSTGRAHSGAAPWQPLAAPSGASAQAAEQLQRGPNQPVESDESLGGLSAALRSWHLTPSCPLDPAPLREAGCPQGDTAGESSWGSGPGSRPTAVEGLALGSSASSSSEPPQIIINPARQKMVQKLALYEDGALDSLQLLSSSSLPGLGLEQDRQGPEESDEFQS
Chain of Serine/threonine-protein kinase Nek7 (Homo sapiens) (Q8TDX7 whole entry, looked up): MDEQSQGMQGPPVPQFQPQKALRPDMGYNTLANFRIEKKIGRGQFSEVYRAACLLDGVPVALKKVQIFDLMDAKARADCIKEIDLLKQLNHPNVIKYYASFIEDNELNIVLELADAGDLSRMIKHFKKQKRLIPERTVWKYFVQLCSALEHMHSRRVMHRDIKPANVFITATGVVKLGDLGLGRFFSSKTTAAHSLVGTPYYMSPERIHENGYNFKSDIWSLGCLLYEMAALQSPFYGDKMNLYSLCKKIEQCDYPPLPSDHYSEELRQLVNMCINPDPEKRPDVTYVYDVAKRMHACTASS

## CC[C@@H](Nc1c(C#N)c(-c2ccc(-c3cccc(C)c3F)cc2)nc2cnccc12)C(=O)O [BAY-091]
[1]
  inhibition: 9.6%
[2]
  inhibition: 9.65%
[3]
  inhibition: 13%
[4]
  inhibition: 19%
[5]
  inhibition: 12%
[6]
  inhibition: 14.8%
[7]
  inhibition: 2.66%
[8]
  inhibition: 11.3%
[9]
  inhibition: 14.2%
[10]
  inhibition: 61%
[11]
  inhibition: 0.76%
[12]
  inhibition: -3.21%
[13]
  inhibition: 12.6%
[14]
  inhibition: 6.22%
[15]
  inhibition: -2%
[16]
  inhibition: 2.1%
[17]
  inhibition: -3.31%
[18]
  inhibition: 5.49%
[19]
  inhibition: 15.8%
[20]
  inhibition: 11%
[21]
  inhibition: 10.3%
[22]
  inhibition: 8.82%
[23]
  inhibition: 4.66%
[24]
  inhibition: 21.1%
[25]
  inhibition: 14.4%
[26]
  inhibition: 5.23%
Homo sapiens
  inhibition: -8%
[27]
  inhibition: 29%
[28]
  inhibition: 3%
[29]
  inhibition: 3.17%
[30]
  inhibition: -8.43%
[31]
  inhibition: 0.33%
[32]
  inhibition: 2.75%
[33]
  inhibition: 15.1%
[34]
  inhibition: 16%
D(1A) dopamine receptor
  inhibition: -3.98%
[35]
  inhibition: 6.42%
[36]
  inhibition: 3.34%
[37]
  inhibition: 15.8%
[38]
  inhibition: -1.5%
[39]
  inhibition: 16.2%
[40]
  inhibition: 4.29%
[41]
  inhibition: 23.5%
